Assays:
INCL fibroblasts = test: Depletion of [35S]cysteine-labeled lipid thioesters in INCL fibroblasts; type: cell-based, human; conditions: treatment for 24 and 48 hours vs untreated control cells (FIG. 7)
Protocol: Thus, this derivative was chosen for more extensive study of its ability to hydrolyze […] proteins, and to deplete lipid-extractable [^35S]cysteine thioesters from fibroblasts and lymphoblasts. INCL fibroblasts were obtained and cultured as described in Example 4. The cells were then labeled with [^35S]cysteine. Briefly, following incubation for six hours in medium lacking serum and cysteine/cystine, the cells were washed and then re-cultured for varying lengths of time in medium containing NtBuHA, with a change of medium every 12 hours. As controls, [^35S]cysteine-labeled cells were cultured in drug-free medium as well as medium containing 1M HA. Following incubation, cells were washed twice with cold PBS and then centrifuged at 2,250 g at 4° C. for 5 minutes. Lipid thioesters were then extracted from the cells and subject to analysis by high-performance thin layer chromatography. Briefly, the extracted fatty acyl esters were dissolved in chloroform:methanol (1:1) and an aliquot applied to a TLC plate and resolved using a mixture of chloroform:methanol:water (65:25:4). The plates were then dried and autoradiographs obtained.

PPT1-KO mice [1] = test: Autofluorescence of brain tissues of PPT1-KO mice; type: in vivo, mouse; conditions: vs untreated PPT1-KO mice (FIG. 13)
Protocol: (§1) All animal experiments were performed according to the institutional guidelines after an animal protocol was approved by the Animal Care and Use Committee of the National Institute of Child Health and Development, National Institutes of Health. PPT1-KO mice (a gift from Dr. S. L. Hofmann, University of Texas Southwestern Medical Center at Dallas, Dallas, Tex., USA) were generated by targeted disruption of the last exon in the PPT1 gene in embryonic stem (ES) cells. These mice were subsequently backcrossed for 10 generations with wild type C57BL/6 mice in order to obtain congenic C57 background and a breeding pair was provided by Dr. Mark Sands to start the inventors' colony. Animals were housed and maintained in a pathogen-free facility. Three-month old PPT-KO mice were given NtBuHA in their drinking water (1 mM NtBuHA and 1 mM NaCl).
Accumulation of intracellular autofluorescent lipopigment material in the brain and other tissues is a characteristic pathological finding in INCL patients and in PPT1-KO mice. Given this, it was hypothesized that NtBuHA-mediated depletion of GRODs may also reduce the intensity of autofluorescence in brain tissues of NtBuHA-treated PPT1-KO mice. Accordingly, a comparison of the autofluorescence of brain tissues from NtBuHA-treated PPT 1-KO mice, untreated PPT 1-KO mice, and wild-type litter-mates was performed.

INCL lymphoblasts = test: H2O2-induced apoptosis in INCL lymphoblasts (annexin V, FACS); type: cell-based, human; conditions: 1 mM NtBuHA 12 hours
Protocol: To evaluate whether NtBuHA protects against oxidative stress-induced apoptosis in INCL lymphoblasts the cells were treated with 1 mM NtBuHA for 12 hours and then incubated with 500 μM H2O2 for 3 hours in presence or absence of NtBuHA (1 mM). Untreated INCL lymphoblasts were also treated with H2O2 for 3 hours. For the detection of apoptosis the cells were stained with annexin V using Apoptosis detection kit (Biovision) and analyzed by FACS (Guava EasyCyte Mini System, Millipore).
Moreover, in these cells antisense-mediated inhibition of PPT1 leads to increased apoptosis. […] In addition, increased neuronal apoptosis in the brain of PPT1-KO mice has also been reported. […] Thus, the inventors sought to determine whether the NtBuHA-treatment protects cultured immortalized INCL lymphoblasts from oxidative-stress mediated apoptosis. Cultured lymphoblasts from INCL patients were chosen because PPT1 is expressed in all tissues and PPT 1-deficiency in cultured lymphoblasts and fibroblasts from INCL patients show virtually identical pathological changes (accumulation of ceroid, GRODs and increased apoptosis) as are found in postmortem neuronal tissues from such patients. […] Apoptosis of the H2O2-treated cells was then quantitated by florescence activated cell sorting (FACS) analysis.

PPT1-KO mice [2] = test: TUNEL assay of cortical tissue sections of PPT1-KO mice; type: in vivo, mouse; conditions: cortical tissue vs untreated PPT1-KO mice (FIG. 16)
Protocol: It has been reported that postmortem brain tissues from INCL patients as well as those from PPT1-KO mice manifest high levels of oxidative stress, which induces neuronal apoptosis contributing to neuropathology. […] Accordingly, a terminal deoxynucleotidyl transferase dUTP nick end labeling (TUNEL) assay was performed using cortical tissue sections from wild-type, untreated PPT1-KO and NtBuHA-treated PPT1-KO mice to determine the level of apoptosis. […] Since elevated levels of apoptosis in the brain of PPT1-KO mice and INCL patients mediate progressive decline in number of cortical neurons, the inventors also sought to further confirm whether decreased apoptosis in NtBuHA-treated PPT1-KO mice prevented neuronal loss. Accordingly, an immunohistochemical analyses of cortical tissue sections from wild-type, untreated-PPT1-KO, and NtBuHA-treated PPT1-KO mice was performed using antibodies against a neuronal marker, NeuN. […] Quantitative analysis of the NeuN-positive cells in brain tissues from wild-type, untreated and NtBuHA-treated PPT1-KO mice (FIG. 18D) confirmed the visual assessment.

PPT1-KO mice [3] = test: Rotarod Performance Test, motor coordination of PPT1-KO mice; type: in vivo, mouse; conditions: 6-month and 8-month old PPT1-KO mice (FIG. 19A-D)
Protocol: Motor coordination of the untreated- and NtBuHA-treated PPT1-KO mice was assessed using Rotarod) (UGO Basile, Italy) at three different speeds (4, 8 and 12 rpm). In all these speeds the direction of rotation was reversed every 15 seconds. Animals were trained twice at all speed settings for 1 minute each for 3 days. Animals were then given a rest for 1 minute between two trials. Rotarod experiments were performed for at least 60 seconds on day 4 and the amount of time a mouse was on the rotarod before falling from the rotating rod was recorded.
Since NtBuHA functionally mimics PPT1, the inventors tested 6-month and 8-month old wild-type, untreated- and NtBuHA-treated PPT1-KO mice for motor coordination and exploratory behavior. The Rotarod Performance Test, which measures parameters such as riding time (seconds) and/or endurance was used to measure motor coordination. The open field test was utilized to evaluate the exploratory behavior.

PPT1-KO mice [4] = test: Survival of PPT1-KO mice; type: in vivo, mouse; conditions: 5.5 months after initiation; treatment from 3 months of age; 52 out of 59 mice; untreated 10%
Protocol: as §1
For this study, 3-month old PPT1-KO mice were divided into two groups. In the first group, 55 mice received no treatment (control). In the second group, 59 mice were treated with NtBuHA. The status of all mice was monitored on a daily basis.

PPT1-KO mice [5] = test: Toxicity of dietary NtBuHA in Ppt1-KO mice; type: in vivo, mouse
From the text: Thus, toxicity of HA precludes its clinical use. However, HA-derivatives may be non-toxic. […] (See Table 1 for a listing of these HA-derivatives). […] (See Table 3).

Structure (SMILES): CC(C)(C)NO [NtBuHA, N-(tert-Butyl)hydroxylamine]
- intensity of [35S]cysteine-labeled lipid extractable thioester compounds (INCL fibroblasts): significantly reduced intensity
- autofluorescence of brain tissues (PPT1-KO mice [1]): markedly reduced autofluorescence
- H2O2-induced apoptosis, pre- and co-treated cells (INCL lymphoblasts; then 500 μM H2O2 3 hours in presence of NtBuHA (FIG. 15)): no alteration in apoptosis above the base level
- H2O2-induced apoptosis, pretreated cells (INCL lymphoblasts; then 500 μM H2O2 3 hours without NtBuHA (FIG. 15)): failed to induce apoptosis above the base level
- TUNEL-positive apoptotic cells (PPT1-KO mice [2]): appreciably lower levels of TUNEL-positive apoptotic cells
- motor function (Rotarod) (PPT1-KO mice [3]): retained near normal motor function
- mice still alive (PPT1-KO mice [4]): 88%
- toxicity in Ppt1-KO mice (PPT1-KO mice [5]): showed no toxicity

From US9629816B2, “Small molecule therapeutic compounds targeting thioesterase deficiency disorders and methods of using the same” (The United States of America, as represented by the …, priority 2011, dated 2017)
